Results from US20050261169A1, “Peptide and peptide mimetic derivatives having integrin inhibitor properties III” (priority 2003, published 2005).

Tested on: mouse MC3T3 E1 osteoblast cultures
Assay: Cell adhesion test on RGD-peptide-coated titanium surfaces
Format: cell-based
Conditions: 50,000 cells/cm^2 seeded, one hour in serum-free medium at 37° C.; FIG. 2; compared with JAU311003, all concentrations measured
Method: Ti or TiAl6V4 moldings having a diameter of 10 mm and a height of 1-2 mm are cleaned.
The moldings are transferred into 48-well plates (Costar, “non-tissue culture treated” Art. No. 3574). For bonding of the bioactive, cell adhesion-promoting molecules B (where B can be a cyclopeptide, peptide mimetic or linear peptide) to the prepared moldings, stock solutions containing B molecules (“B solutions”) are prepared in a final concentration of 1 mM in an aqueous buffer. Concentration series with the “B solution” final concentrations of 1 nM, 10 nM, 100 nM, 1 μM, 10 μM and 100 μM in each case are subsequently prepared by dilution with buffer. The moldings are covered with 250 μl of the respective B solutions in each case and subsequently incubated at room temperature for 18-24 hours. For removal of unbound B molecules, the samples are washed three times with buffer and stored in buffer overnight. […]
The adhesion of mouse MC3T3 E1 osteoblast cultures to RGD-peptide-coated titanium surfaces in vitro was investigated. 50,000 cells/cm^2 were seeded, and the proportion of adhered cells was determined after incubation for one hour in serum-free medium at 37° C./95% atmospheric humidity. • Cell adhesion rate [%]=adhered cells/seeded cells×100 • Peptide: cell adhesion rate [%] • The results can be found in the figures.

## cyclo(Arg-Gly-Asp-D-Phe-Lys(^εNH—[CO—(CH2)5—NH]3—(CO—C6H3(CH2PO3H2)2)) [CD 135]
  Cell adhesion rate: higher cell adhesion rate for all concentrations measured
